Measurements published in patent publication US6958352B2, “Compounds for inhibiting insulin secretion and methods related thereto” (SmithKline Beecham Corporation, priority 2002, dated 2005).
pIC50: −log10 of the molar value. Read-outs that look alike come from different tables or passages of the source.

Molecular target: T1, mitochondrial calcium/sodium antiporter (Rattus norvegicus, UniProt Q6AXS0)
T1 sequence (Q6AXS0 1-585): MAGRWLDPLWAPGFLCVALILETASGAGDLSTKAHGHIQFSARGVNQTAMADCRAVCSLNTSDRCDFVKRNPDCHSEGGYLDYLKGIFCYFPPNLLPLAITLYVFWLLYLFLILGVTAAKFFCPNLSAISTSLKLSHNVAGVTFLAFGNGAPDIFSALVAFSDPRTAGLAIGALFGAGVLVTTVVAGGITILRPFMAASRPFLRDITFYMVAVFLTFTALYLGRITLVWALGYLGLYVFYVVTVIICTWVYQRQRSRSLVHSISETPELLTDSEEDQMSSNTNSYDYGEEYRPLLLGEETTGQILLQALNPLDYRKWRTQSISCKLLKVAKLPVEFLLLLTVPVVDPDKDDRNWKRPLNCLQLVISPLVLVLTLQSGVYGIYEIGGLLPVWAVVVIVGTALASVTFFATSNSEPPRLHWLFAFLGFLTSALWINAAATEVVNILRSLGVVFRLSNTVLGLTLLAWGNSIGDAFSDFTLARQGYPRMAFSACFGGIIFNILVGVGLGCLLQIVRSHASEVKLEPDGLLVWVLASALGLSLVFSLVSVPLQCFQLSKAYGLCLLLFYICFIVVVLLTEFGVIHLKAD
Assay: Inhibition of mitochondrial calcium/sodium antiporter activity (NaCl-induced mitochondrial calcium efflux, calcium green 5N fluorescence)
Assay type: cell-based
Details: digitonin-permeabilized INS-1 cells, 20 mM NaCl
Experimental: INS-1 rat insulinoma cells (see Example 16) were harvested by trypsinization, washed and resuspended at 10×10^6 cells/ml in assay buffer (250 mM sucrose, 10 mM HEPES, 2.5 mM K2HPO4, 5 mM succinate, pH 7.4) containing 0.007% digitonin, 60 μM CaCl2 and 0.05 μM calcium green 5N (Molecular Probes, Inc., Eugene, Oreg.). After a five-minute calcium loading incubation, ruthenium red (1 μM; Sigma, St. Louis, Mo.) was added to block further calcium uptake by mitochondria. Cell suspensions were dispensed into 96-well plates (100 μl per well, 1×10^6 cells per well) and candidate agents (i.e., candidate mitochondrial calcium/sodium antiporter inhibitors) were added to some sets of triplicate wells at concentrations of 1, 10 or 100 μM, while other sets of wells provided appropriate control conditions (e.g., buffer and vehicle controls). Baseline fluorescence measurements were made using a multiwell plate fluorimeter (F-MAX™, Molecular Devices Corp., Sunnyvale, Calif.; or PolarStar™, BMG Labtechnologies, Inc., Durham, N.C.) according to the manufacturer's instructions. Calcium efflux from mitochondria was then induced by adding NaCl to all wells to achieve a final concentration of 20 mM, and the rate of change in fluorescence in each well was monitored […] for two minutes and quantified using software included with the plate reader.

[1] = Table 2, preferred compounds, read-out: IC50 ≦ 10 μM
[2] = Table 3, more preferred compounds, read-out: IC50 ≦ 1 μM

Row | Structure (SMILES) | pIC50 [1] | pIC50 [2]
1 | COC(=O)CSC(c1ccccc1C)c1cc(Cl)ccc1N (stereo not drawn) [Compound 11aa] | ≥ 5.00 | ≥ 6.00
2 | COC(=O)CSC(c1cc(Cl)ccc1N)C1CCCCC1 (stereo not drawn) [Compound 11ak] | – | ≥ 6.00
3 | COC(=O)CSC(CC(C)C)c1cc(Cl)ccc1N (stereo not drawn) [Compound 11am] | ≥ 5.00 | –
4 | COC(=O)CSC(CCCOCc1ccccc1)c1cc(Cl)ccc1N (stereo not drawn) [Compound 11an] | ≥ 5.00 | –
5 | COC(=O)CSC(c1cc(Cl)ccc1NC(=O)C(F)(F)F)c1c(C)cccc1C (stereo not drawn) [Compound 11ba] | ≥ 5.00 | ≥ 6.00
6 | COC(=O)CSC(c1cc(Cl)ccc1N)c1sccc1C (stereo not drawn) [Compound 11c] | ≥ 5.00 | –
7 | COC(=O)CSC(c1cc(C)cc(C)c1)c1cc(Cl)ccc1N (stereo not drawn) [Compound 11d] | ≥ 5.00 | ≥ 6.00
8 | COC(=O)CSC(c1nc2ccccc2s1)c1cc(Cl)ccc1N (stereo not drawn) [Compound 11f] | ≥ 5.00 | –
9 | COC(=O)CSC(c1cc(Cl)ccc1N)c1cccn1C (stereo not drawn) [Compound 11h] | ≥ 5.00 | ≥ 6.00
10 | COC(=O)CSC(c1cccc(C)c1)c1cc(Cl)ccc1N (stereo not drawn) [Compound 11i] | ≥ 5.00 | –
11 | COC(=O)CSC(c1cc(Cl)ccc1N)c1cccc(C)c1C (stereo not drawn) [Compound 11k] | ≥ 5.00 | –
12 | COC(=O)CSC(c1ccc(C)c(C)c1)c1cc(Cl)ccc1N (stereo not drawn) [Compound 11l] | ≥ 5.00 | –
13 | COC(=O)CSC(c1cc(C)ccc1C)c1cc(Cl)ccc1N (stereo not drawn) [Compound 11m] | ≥ 5.00 | –
14 | COC(=O)CSC(c1ccccc1N)c1ccccc1Cl (stereo not drawn) [Compound 11r] | ≥ 5.00 | –
15 | COC(=O)CSC(c1cc(Cl)ccc1N)c1ccccc1Cl (stereo not drawn) [Compound 11s] | ≥ 5.00 | ≥ 6.00
16 | COC(=O)CSC(c1ccccc1)c1cc([N+](=O)[O-])ccc1N (stereo not drawn) [Compound 11t] | ≥ 5.00 | –
17 | COC(=O)CSC(c1nccs1)c1cc(Cl)ccc1N (stereo not drawn) [Compound 11u] | ≥ 5.00 | –
18 | COC(=O)CSC(c1ccc(C)cc1C)c1cc(Cl)ccc1N (stereo not drawn) [Compound 11w] | ≥ 5.00 | –
19 | COC(=O)CSC(c1ccccc1)c1cc(Cl)ccc1N (stereo not drawn) [Compound 11x] | ≥ 5.00 | –
20 | CNC(=O)CSC(c1cc(Cl)ccc1N)c1ccccc1Cl (stereo not drawn) [Compound 13a] | ≥ 5.00 | –
21 | O=C(CSC(c1cc(Cl)ccc1O)c1ccccc1Cl)N1CCCCC1 (stereo not drawn) [Compound 13ag] | ≥ 5.00 | –
22 | O=C(CSC(c1ccccc1)c1cc(Cl)ccc1O)N1CCCCC1 (stereo not drawn) [Compound 13ai] | ≥ 5.00 | –
23 | CN(C)C(=O)CSC(c1cc(Cl)ccc1N)c1ccccc1Cl (stereo not drawn) [Compound 13b] | ≥ 5.00 | ≥ 6.00

Row | Structure (SMILES) | pIC50 [1] | pIC50 [2]
24 | Nc1ccc(Cl)cc1C(SCC(=O)NCCc1ccccc1)c1ccccc1Cl (stereo not drawn) [Compound 13c] | ≥ 5.00 | ≥ 6.00
25 | Nc1ccc(Cl)cc1C(SCC(=O)N1CCCCC1)c1ccccc1Cl (stereo not drawn) [Compound 13d] | ≥ 5.00 | ≥ 6.00
26 | Nc1ccc(Cl)cc1C(SCC(=O)NCCO)c1ccccc1Cl (stereo not drawn) [Compound 13e] | ≥ 5.00 | –
27 | Nc1ccc(Cl)cc1C(SCC(=O)NCc1ccccc1)c1ccccc1Cl (stereo not drawn) [Compound 13f] | ≥ 5.00 | ≥ 6.00
28 | CC(=O)NCCNC(=O)CSC(c1cc(Cl)ccc1N)c1ccccc1Cl (stereo not drawn) [Compound 13g] | ≥ 5.00 | ≥ 6.00
29 | Nc1ccc(Cl)cc1C(SCC(=O)NC1CCCCC1)c1ccccc1Cl (stereo not drawn) [Compound 13h] | ≥ 5.00 | ≥ 6.00
30 | Nc1ccc(Cl)cc1C(SCC(=O)NCC(c1ccccc1)c1ccccc1)c1ccccc1Cl (stereo not drawn) [Compound 13i] | ≥ 5.00 | ≥ 6.00
31 | Nc1ccc(Cl)cc1C(SCC(=O)N1CCN(c2ccccc2)CC1)c1ccccc1Cl (stereo not drawn) [Compound 13j] | ≥ 5.00 | ≥ 6.00
32 | CCCNC(=O)CSC(c1cc(Cl)ccc1N)c1ccccc1Cl (stereo not drawn) [Compound 13k] | ≥ 5.00 | ≥ 6.00
33 | CCCCCCNC(=O)CSC(c1cc(Cl)ccc1N)c1ccccc1Cl (stereo not drawn) [Compound 13l] | ≥ 5.00 | ≥ 6.00
34 | COCCCNC(=O)CSC(c1cc(Cl)ccc1N)c1ccccc1Cl (stereo not drawn) [Compound 13m] | ≥ 5.00 | ≥ 6.00
35 | Nc1ccc(Cl)cc1C(SCC(=O)NCC1CCCCC1)c1ccccc1Cl (stereo not drawn) [Compound 13n] | ≥ 5.00 | ≥ 6.00
36 | C#CCNC(=O)CSC(c1cc(Cl)ccc1N)c1ccccc1Cl (stereo not drawn) [Compound 13o] | ≥ 5.00 | ≥ 6.00
37 | Nc1ccc(Cl)cc1C(SCC(=O)NCCCn1ccnc1)c1ccccc1Cl (stereo not drawn) [Compound 13p] | ≥ 5.00 | ≥ 6.00
38 | CN(C)CCCNC(=O)CSC(c1cc(Cl)ccc1N)c1ccccc1Cl (stereo not drawn) [Compound 13q] | ≥ 5.00 | –
39 | Nc1ccc(Cl)cc1C(SCC(=O)NC1CC1)c1ccccc1Cl (stereo not drawn) [Compound 13r] | ≥ 5.00 | ≥ 6.00
40 | Nc1ccc(Cl)cc1C(SCC(=O)NCCc1ccc(O)cc1)c1ccccc1Cl (stereo not drawn) [Compound 13s] | ≥ 5.00 | ≥ 6.00
41 | Nc1ccc(Cl)cc1C(SCC(=O)NCCc1ccc(O)c(I)c1)c1ccccc1Cl (stereo not drawn) [Compound 13t] | ≥ 5.00 | –
42 | Nc1ccc(Cl)cc1C(SCC(=O)NCCc1cc(I)c(O)c(I)c1)c1ccccc1Cl (stereo not drawn) [Compound 13u] | ≥ 5.00 | ≥ 6.00
43 | NCCOCCOCCNC(=O)CSC(c1cc(Cl)ccc1N)c1ccccc1Cl (stereo not drawn) [Compound 13v] | ≥ 5.00 | ≥ 6.00
44 | Nc1ccc(Cl)cc1C(SCc1nc(-c2ccc(F)cc2)no1)c1ccccc1Cl (stereo not drawn) [Compound 14a] | ≥ 5.00 | –
45 | Cc1noc(CSC(c2cc(Cl)ccc2N)c2ccccc2Cl)n1 (stereo not drawn) [Compound 14b] | ≥ 5.00 | ≥ 6.00
46 | Cc1cc(C)cc(C(SCc2nc(C)no2)c2cc(Cl)ccc2N)c1 (stereo not drawn) [Compound 14d] | ≥ 5.00 | –

Row | Structure (SMILES) | pIC50 [1] | pIC50 [2]
47 | Cc1noc(CSC(c2cccs2)c2cc(Cl)ccc2N)n1 (stereo not drawn) [Compound 14g] | ≥ 5.00 | ≥ 6.00
48 | Cc1noc(CSC(c2cc(Cl)ccc2N)c2cccn2C)n1 (stereo not drawn) [Compound 14h] | ≥ 5.00 | ≥ 6.00
49 | Cc1cccc(C(SCc2nc(C)no2)c2cc(Cl)ccc2N)c1 (stereo not drawn) [Compound 14i] | ≥ 5.00 | –
50 | Cc1noc(CSC(c2cc(Cl)ccc2N)c2cccc(C)c2C)n1 (stereo not drawn) [Compound 14k] | ≥ 5.00 | ≥ 6.00
51 | Cc1noc(CSC(c2ccc(C)c(C)c2)c2cc(Cl)ccc2N)n1 (stereo not drawn) [Compound 14l] | ≥ 5.00 | –
52 | Cc1ccc(C)c(C(SCc2nc(C)no2)c2cc(Cl)ccc2N)c1 (stereo not drawn) [Compound 14m] | ≥ 5.00 | –
53 | Cc1ccc(C)c(C(SCc2nc(C)no2)c2cc(Cl)ccc2NC(=O)C(F)(F)F)c1 (stereo not drawn) [Compound 14ma] | ≥ 5.00 | –
54 | Cc1noc(CSC(c2ccccc2)c2cc([N+](=O)[O-])ccc2N)n1 (stereo not drawn) [Compound 14t] | ≥ 5.00 | –
55 | CCSC(c1cc(Cl)ccc1N)c1ccccc1Cl (stereo not drawn) [Compound 15c] | ≥ 5.00 | ≥ 6.00
56 | Nc1ccc(Cl)cc1C(SCCO)c1ccccc1Cl (stereo not drawn) [Compound 15d] | ≥ 5.00 | ≥ 6.00
57 | COC(=O)CCSC(c1cc(Cl)ccc1N)c1ccccc1Cl (stereo not drawn) [Compound 15e] | ≥ 5.00 | ≥ 6.00
58 | Nc1ccc(Cl)cc1C(Sc1ccccn1)c1ccccc1Cl (stereo not drawn) [Compound 15f] | ≥ 5.00 | ≥ 6.00
59 | Nc1ccc(Cl)cc1C(SCC(F)(F)F)c1ccccc1Cl (stereo not drawn) [Compound 15i] | ≥ 5.00 | ≥ 6.00
60 | Nc1ccc(Cl)cc1C(SCCCO)c1ccccc1Cl (stereo not drawn) [Compound 15k] | ≥ 5.00 | ≥ 6.00
61 | Nc1ccc(Cl)cc1C(SCCNC(=O)c1ccccc1)c1ccccc1Cl (stereo not drawn) [Compound 16a] | ≥ 5.00 | ≥ 6.00
62 | COc1ccc(C(=O)NCCSC(CC(C)C)c2cc(Cl)ccc2N)cc1OC (stereo not drawn) [Compound 16aa] | – | ≥ 6.00
63 | COc1cc(C(=O)NCCSC(c2cc(Cl)ccc2N)C(C)C)cc(OC)c1OC (stereo not drawn) [Compound 16ab] | – | ≥ 6.00
64 | COc1cc(C(=O)NCCSC(CC(C)C)c2cc(Cl)ccc2N)cc(OC)c1OC (stereo not drawn) [Compound 16ac] | – | ≥ 6.00
65 | COc1ccc(C(=O)NCCSC(c2cc(F)ccc2N)C2CCCCC2)cc1OC (stereo not drawn) [Compound 16ad] | – | ≥ 6.00
66 | COc1ccc(C(=O)NCCSC(c2ccccc2N)C2CCCCC2)cc1OC (stereo not drawn) [Compound 16ae] | – | ≥ 6.00
67 | COc1ccc(CC(=O)NCCSC(c2cc(Cl)ccc2N)c2ccccc2Cl)cc1OC (stereo not drawn) [Compound 16b] | ≥ 5.00 | ≥ 6.00
68 | Nc1ccc(Cl)cc1C(SCCNC(=O)c1ccc(Cl)cc1Cl)c1ccccc1Cl (stereo not drawn) [Compound 16c] | ≥ 5.00 | –
69 | COc1ccc(C(=O)NCCSC(c2cc(Cl)ccc2N)c2ccccc2Cl)cc1OC (stereo not drawn) [Compound 16d] | ≥ 5.00 | ≥ 6.00
